According to ChEMBL document CHEMBL5252536, “Discovery of VU0467485/AZ13713945: An M4 PAM Evaluated as a Preclinical Candidate for the Treatment of Schizophrenia” (ACS Med Chem Lett, 2017):

Tests used:
[1] = target: T1, Muscarinic acetylcholine receptor M4 (Homo sapiens) (UniProt P08173); assay: Positive allosteric modulator activity at human M4 receptor expressed in CHO cells co-expressing Gqi5 assessed as maximal response to ACh by calcium mobilization assay relative to contol; format: cell-based; conditions: filed as positive allosteric modulator
T1 sequence (whole entry): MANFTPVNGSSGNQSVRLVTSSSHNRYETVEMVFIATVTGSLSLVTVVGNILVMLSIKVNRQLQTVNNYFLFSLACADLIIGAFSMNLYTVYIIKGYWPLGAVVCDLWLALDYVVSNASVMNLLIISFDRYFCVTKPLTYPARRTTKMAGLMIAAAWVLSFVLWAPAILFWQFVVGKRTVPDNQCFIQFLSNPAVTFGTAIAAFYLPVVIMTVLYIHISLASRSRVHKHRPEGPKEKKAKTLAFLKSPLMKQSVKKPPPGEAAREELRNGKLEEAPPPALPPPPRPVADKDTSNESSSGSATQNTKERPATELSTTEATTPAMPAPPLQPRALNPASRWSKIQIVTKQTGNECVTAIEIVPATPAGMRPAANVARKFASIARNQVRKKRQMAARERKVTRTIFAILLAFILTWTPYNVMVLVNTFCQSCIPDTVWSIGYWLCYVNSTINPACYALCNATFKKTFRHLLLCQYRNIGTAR

[2] = target: T2, Muscarinic acetylcholine receptor M4 (Homo sapiens, UniProt P08173); assay: Positive allosteric modulator activity at human M4 receptor expressed in CHO cells co-expressing Gqi5 in presence of EC20 concentration of acetylcholine by calcium mobilization assay; format: cell-based
T2 sequence (P08173 whole entry): T1 sequence (whole entry)

Row | Structure (SMILES) | Activity [1] | EC50 ([2]; read-out: EC50) | pEC50 ([2]; cho) | EC50 ([2]; read-out: pEC50 (converted))
1 | COc1cc(F)c(CNC(=O)c2sc3nnc(C)c(C)c3c2N)c(F)c1 | 87.1% | 100 nM |  | 
2 | COc1ccc(CNC(=O)c2sc3nnc(C)c(C)c3c2N)cc1 | 83.7% | 130 nM |  | 
3 | COc1ncc(CNC(=O)c2sc3nnc(C)c(C)c3c2N)cc1F | 80.8% | 142 nM |  | 
4 | COc1ccc(CNC(=O)c2sc3nnc(C)c(C)c3c2N)c(F)c1F | 71.2% | 43.4 nM |  | 
5 | COc1ccc(CNC(=O)c2sc3nnc(C)c(C)c3c2N)cn1 | 76.9% | 239 nM |  | 
6 | COc1cc(F)c(CNC(=O)c2sc3nnc(C)c(C)c3c2N)cc1F | 68.5% | 41.4 nM |  | 
7 | COc1ccc(CNC(=O)c2sc3nnc(C)c(C)c3c2N)c(F)c1 | 75.5% | 90.6 nM |  | 
8 | COc1ccc([C@H](C)NC(=O)c2sc3nnc(C)c(C)c3c2N)cc1F | 62.4% | 508 nM |  | 
9 | Cc1nnc2sc(C(=O)NCc3ccc(O)cc3)c(N)c2c1C | 69.8% | 96.7 nM |  | 
10 | COc1c(F)cc(CNC(=O)c2sc3nnc(C)c(C)c3c2N)cc1F | 75.3% | 84.1 nM |  | 
11 | COc1ccc([C@@H](C)NC(=O)c2sc3nnc(C)c(C)c3c2N)cc1F |  | > 10000 nM | < 5 | 
12 | Cc1nnc2sc(C(=O)NCc3ccc(O)c(F)c3)c(N)c2c1C | 83.1% | 59.1 nM |  | 60.3 nM
